# ChEMBL document CHEMBL3399985, “Rational design, synthesis and structure-activity relationships of 4-alkoxy- and 4-acyloxy-phenylethylenethiosemicarbazone analogues as novel tyrosinase inhibitors” (Bioorg Med Chem, 2015)
# Activity calls are given as the source filed them. No cut-off for these calls is given here.
# Legend:
# Tyrosinase = target: T1, Tyrosinase (Agaricus bisporus, UniProt O42713)
# T1 sequence (O42713 whole entry): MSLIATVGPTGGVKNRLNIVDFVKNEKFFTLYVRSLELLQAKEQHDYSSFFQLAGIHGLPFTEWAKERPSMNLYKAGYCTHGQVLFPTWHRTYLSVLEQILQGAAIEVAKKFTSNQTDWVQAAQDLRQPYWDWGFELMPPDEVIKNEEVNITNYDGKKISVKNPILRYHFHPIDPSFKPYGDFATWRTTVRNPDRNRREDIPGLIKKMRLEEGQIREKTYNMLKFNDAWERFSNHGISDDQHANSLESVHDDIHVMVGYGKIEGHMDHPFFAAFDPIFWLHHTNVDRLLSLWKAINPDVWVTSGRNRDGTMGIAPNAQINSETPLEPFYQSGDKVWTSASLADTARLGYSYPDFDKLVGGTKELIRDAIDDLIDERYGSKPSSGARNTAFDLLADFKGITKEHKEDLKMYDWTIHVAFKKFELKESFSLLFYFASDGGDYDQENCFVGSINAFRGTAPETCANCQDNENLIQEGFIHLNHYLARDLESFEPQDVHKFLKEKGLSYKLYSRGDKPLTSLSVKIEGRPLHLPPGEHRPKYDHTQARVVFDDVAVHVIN
# Description: Inhibition of mushroom tyrosinase using L-DOPA as substrate preincubated for 10 mins by spectrophotometry
# [1] = target: T2, Tyrosinase (Agaricus bisporus) (UniProt O42713); test: Competitive inhibition of mushroom tyrosinase using L-DOPA as substrate preincubated at 0.2 to 0.6 uM for 10 mins by Lineweaver-Burk double reciprocal plot method
# T2 sequence (whole entry): T1 sequence (O42713 whole entry)
# [2] = target: T2, Tyrosinase (Agaricus bisporus); test: Reversible inhibition of mushroom tyrosinase using L-DOPA as substrate preincubated at 0.2 to 0.6 uM for 10 mins by spectrophotometry
# [3] = target: T2, Tyrosinase (Agaricus bisporus); test: Reversible inhibition of mushroom tyrosinase using L-DOPA as substrate preincubated at 0.1 to 0.3 uM for 10 mins by spectrophotometry
# [4] = target: T2, Tyrosinase (Agaricus bisporus); test: Competitive inhibition of mushroom tyrosinase using L-DOPA as substrate preincubated at 0.1 to 0.3 uM for 10 mins by Lineweaver-Burk double reciprocal plot method
Compound,IC50 (Tyrosinase) [nM],further results
CCCCCOc1ccc(C/C(C)=N/NC(N)=S)cc1,613,–
CCCCCCOc1ccc(CC/C(C)=N/NC(N)=S)cc1,754,–
C/C(CCc1ccc(OCCCC(=O)O)cc1)=N\NC(N)=S,678,–
C/C(Cc1ccc(O)cc1)=N\NC(N)=S,2710,–
C/C(CCc1ccc(O)cc1)=N\NC(=S)NN,126000,–
COc1ccc(/C(C)=N/NC(=S)NN)cc1,110000,–
NNC(=S)NN,178000,–
CCCCOc1ccc(C/C(C)=N/NC(=S)NN)cc1,224000,–
CCCCCCCCOc1ccc(CC/C(C)=N/NC(N)=S)cc1,865,–
CCCCOc1ccc(CC/C(C)=N/NC(=S)NN)cc1,232000,–
COc1ccc(C/C(C)=N/NC(=S)NN)cc1,159000,–
C/C(CCc1ccc(OCC(=O)O)cc1)=N\NC(N)=S,593,–
COc1ccc(CC/C(C)=N/NC(=S)NN)cc1,208000,–
C/C(CCc1ccc(OCCCc2ccccc2)cc1)=N\NC(N)=S,835,–

# Now those with a lower IC50 (Tyrosinase), led by results:
IC50 (Tyrosinase) [nM],Compound,further results
188,COc1ccc(CC/C(C)=N/NC(N)=S)cc1,–
72,CC(=O)Oc1ccc(CC/C(C)=N/NC(N)=S)cc1,–
412,CCCCCOc1ccc(CC/C(C)=N/NC(N)=S)cc1,–
438,C/C(CCc1ccc(OCc2ccc(Br)cc2)cc1)=N\NC(N)=S,–
340,C/C(Cc1ccc(OCc2ccccc2)cc1)=N\NC(N)=S,inhibition [1]: Active; inhibition [2]: Active
445,CCC(CC)Oc1ccc(CC/C(C)=N/NC(N)=S)cc1,–
515,CCOC(=O)COc1ccc(CC/C(C)=N/NC(N)=S)cc1,–
288,C/C(CCc1ccc(OC(=O)C(C)C)cc1)=N\NC(N)=S,–
478,CCOC(=O)CCCOc1ccc(C/C(C)=N/NC(N)=S)cc1,–
475,C/C(CCc1ccc(OCCC(C)C)cc1)=N\NC(N)=S,–
209,CCOc1ccc(CC/C(C)=N/NC(N)=S)cc1,–
156,C/C(CCc1ccc(OC(=O)c2ccccc2)cc1)=N\NC(N)=S,–
264,CCCOc1ccc(CC/C(C)=N/NC(N)=S)cc1,–
328,CCOC(=O)CCCOc1ccc(CC/C(C)=N/NC(N)=S)cc1,–
217,C/C(CCc1ccc(OCc2ccccc2)cc1)=N\NC(N)=S,inhibition [3]: Active; inhibition [4]: Active
272,CCCCOc1ccc(CC/C(C)=N/NC(N)=S)cc1,–
